Measurements taken from US20140343000A1 (priority 2011, published 2014).

What follows are molecules tested on recombinant NL4-3 virus (Renilla luciferase in nef, Gag P373S; NLRluc) in MT-2 cells (assay: whole plant or invertebrate). Conditions: Renilla, NL43, luciferase activity in cells infected for 4-5 days with NLRluc recombinants, serial dilutions of inhibitor; class symbols (key in Table 1); read-out: EC50.
Type: cell-based, HIV
Outline: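 Inhibitor potency against the reporter virus comes from reduced luciferase activity in infected MT-2 cells exposed to a dilution series of compound over 4-5 days.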

| SMILES | EC50 [nM] |
| --- | --- |
| C=C(C)[C@@H]1CC[C@]2(NC(=O)N3CCCN(C(C)=O)CC3)CC[C@]3(C)[C@H](CC[C@@H]4[C@@]5(C)CC=C(c6ccc(C(=O)O)cc6)C(C)(C)[C@@H]5CC[C@]43C)[C@@H]12 [Example 35, 4-((1R,3aS,5aR,5bR,7aR,11aS,11bR,13aR,13bR)-3a-(4-acetyl-1,4-diazepane-1-carboxamido)-5a,5b,8,8,11a-pentamethyl-1-(prop-1-en-2-yl)-2,3,3a,4,5,5a,5b,6,7,7a,8,11,11a,11b,12,13,13a,13b-octadecahydro-1H-cyclopenta[a]chrysen-9-yl)benzoic acid] | < 100 |
| C=C(C)[C@@H]1CC[C@]2(NC(=O)OC)CC[C@]3(C)[C@H](CC[C@@H]4[C@@]5(C)CC=C(c6ccc(C(=O)O)cc6)C(C)(C)[C@@H]5CC[C@]43C)[C@@H]12 [Example 36, 4-((1R,3aS,5aR,5bR,7aR,11aS,11bR,13aR,13bR)-3a-(methoxycarbonylamino)-5a,5b,8,8,11a-pentamethyl-1-(prop-1-en-2-yl)-2,3,3a,4,5,5a,5b,6,7,7a,8,11,11a,11b,12,13,13a,13b-octadecahydro-1H-cyclopenta[a]chrysen-9-yl)benzoic acid] | < 100 |
| C=C(C)[C@@H]1CC[C@]2(NC(=O)N3CCN(CCO)CC3)CC[C@]3(C)[C@H](CC[C@@H]4[C@@]5(C)CC=C(c6ccc(C(=O)O)cc6)C(C)(C)[C@@H]5CC[C@]43C)[C@@H]12 [Example 38, 4-((1R,3aS,5aR,5bR,7aR,11aS,11bR,13aR,13bR)-3a-(4-(2-hydroxyethyl)piperazine-1-carboxamido)-5a,5b,8,8,11a-pentamethyl-1-(prop-1-en-2-yl)-2,3,3a,4,5,5a,5b,6,7,7a,8,11,11a,11b,12,13,13a,13b-octadecahydro-1H-cyclopenta[a]chrysen-9-yl)benzoic acid] | < 100 |
| C=C(C)[C@@H]1CC[C@]2(NC(=O)N3CCN(CCN(C)C)CC3)CC[C@]3(C)[C@H](CC[C@@H]4[C@@]5(C)CC=C(c6ccc(C(=O)O)cc6)C(C)(C)[C@@H]5CC[C@]43C)[C@@H]12 [Example 39, 4-((1R,3aS,5aR,5bR,7aR,11aS,11bR,13aR,13bR)-3a-(4-(2-(dimethylamino)ethyl)piperazine-1-carboxamido)-5a,5b,8,8,11a-pentamethyl-1-(prop-1-en-2-yl)-2,3,3a,4,5,5a,5b,6,7,7a,8,11,11a,11b,12,13,13a,13b-octadecahydro-1H-cyclopenta[a]chrysen-9-yl)benzoic acid] | < 100 |
| C=C(C)[C@@H]1CC[C@]2(NC(=O)N3CCN(C4CCN(C)CC4)CC3)CC[C@]3(C)[C@H](CC[C@@H]4[C@@]5(C)CC=C(c6ccc(C(=O)O)cc6)C(C)(C)[C@@H]5CC[C@]43C)[C@@H]12 [Example 40, 4-((1R,3aS,5aR,5bR,7aR,11aS,11bR,13aR,13bR)-5a,5b,8,8,11a-pentamethyl-3a-(4-(1-methylpiperidin-4-yl)piperazine-1-carboxamido)-1-(prop-1-en-2-yl)-2,3,3a,4,5,5a,5b,6,7,7a,8,11,11a,11b,12,13,13a,13b-octadecahydro-1H-cyclopenta[a]chrysen-9-yl)benzoic acid] | < 100 |
| C=C(C)[C@@H]1CC[C@]2(NC(=O)N3CCN(C(C)=O)CC3)CC[C@]3(C)[C@H](CC[C@@H]4[C@@]5(C)CC=C(c6ccc(C(=O)O)cc6)C(C)(C)[C@@H]5CC[C@]43C)[C@@H]12 [Example 41, 4-((1R,3aS,5aR,5bR,7aR,11aS,11bR,13aR,13bR)-3a-(4-acetylpiperazine-1-carboxamido)-5a,5b,8,8,11a-pentamethyl-1-(prop-1-en-2-yl)-2,3,3a,4,5,5a,5b,6,7,7a,8,11,11a,11b,12,13,13a,13b-octadecahydro-1H-cyclopenta[a]chrysen-9-yl)benzoic acid] | < 100 |
| C=C(C)[C@@H]1CC[C@]2(NC(=O)N3CCNC(=O)CC3)CC[C@]3(C)[C@H](CC[C@@H]4[C@@]5(C)CC=C(c6ccc(C(=O)O)cc6)C(C)(C)[C@@H]5CC[C@]43C)[C@@H]12 [Example 42, 4-((1R,3aS,5aR,5bR,7aR,11aS,11bR,13aR,13bR)-5a,5b,8,8,11a-pentamethyl-3a-(5-oxo-1,4-diazepane-1-carboxamido)-1-(prop-1-en-2-yl)-2,3,3a,4,5,5a,5b,6,7,7a,8,11,11a,11b,12,13,13a,13b-octadecahydro-1H-cyclopenta[a]chrysen-9-yl)benzoic acid] | < 100 |
| C=C(C)[C@@H]1CC[C@]2(NC(=O)N(C)CCN3CCCC3)CC[C@]3(C)[C@H](CC[C@@H]4[C@@]5(C)CC=C(c6ccc(C(=O)O)cc6)C(C)(C)[C@@H]5CC[C@]43C)[C@@H]12 [Example 44, 4-((1R,3aS,5aR,5bR,7aR,11aS,11bR,13aR,13bR)-5a,5b,8,8,11a-pentamethyl-3a-(3-methyl-3-(2-(pyrrolidin-1-yl)ethyl)ureido)-1-(prop-1-en-2-yl)-2,3,3a,4,5,5a,5b,6,7,7a,8,11,11a,11b,12,13,13a,13b-octadecahydro-1H-cyclopenta[a]chrysen-9-yl)benzoic acid] | < 100 |
| C=C(C)[C@@H]1CC[C@]2(NC(=O)N3CCNCC3)CC[C@]3(C)[C@H](CC[C@@H]4[C@@]5(C)CC=C(c6ccc(C(=O)O)cc6)C(C)(C)[C@@H]5CC[C@]43C)[C@@H]12 [Example 45, 4-((1R,3aS,5aR,5bR,7aR,11aS,11bR,13aR,13bR)-5a,5b,8,8,11a-pentamethyl-3a-(piperazine-1-carboxamido)-1-(prop-1-en-2-yl)-2,3,3a,4,5,5a,5b,6,7,7a,8,11,11a,11b,12,13,13a,13b-octadecahydro-1H-cyclopenta[a]chrysen-9-yl)benzoic acid] | < 100 |
| C=C(C)[C@@H]1CC[C@]2(NC(=O)N(C)CCCN(C)C)CC[C@]3(C)[C@H](CC[C@@H]4[C@@]5(C)CC=C(c6ccc(C(=O)O)cc6)C(C)(C)[C@@H]5CC[C@]43C)[C@@H]12 [Example 46, 4-((1R,3aS,5aR,5bR,7aR,11aS,11bR,13aR,13bR)-3a-(3-(3-(dimethylamino)propyl)-3-methylureido)-5a,5b,8,8,11a-pentamethyl-1-(prop-1-en-2-yl)-2,3,3a,4,5,5a,5b,6,7,7a,8,11,11a,11b,12,13,13a,13b-octadecahydro-1H-cyclopenta[a]chrysen-9-yl)benzoic acid] | < 100 |
| C=C(C)[C@@H]1CC[C@]2(NC(=O)NCCNS(C)(=O)=O)CC[C@]3(C)[C@H](CC[C@@H]4[C@@]5(C)CC=C(c6ccc(C(=O)O)cc6)C(C)(C)[C@@H]5CC[C@]43C)[C@@H]12 [Example 47, 4-((1R,3aS,5aR,5bR,7aR,11aS,11bR,13aR,13bR)-5a,5b,8,8,11a-pentamethyl-3a-(3-(2-(methylsulfonamido)ethyl)ureido)-1-(prop-1-en-2-yl)-2,3,3a,4,5,5a,5b,6,7,7a,8,11,11a,11b,12,13,13a,13b-octadecahydro-1H-cyclopenta[a]chrysen-9-yl)benzoic acid] | < 100 |
| C=C(C)[C@@H]1CC[C@]2(NC(=O)N(C)CCn3ccc4ccccc43)CC[C@]3(C)[C@H](CC[C@@H]4[C@@]5(C)CC=C(c6ccc(C(=O)O)cc6)C(C)(C)[C@@H]5CC[C@]43C)[C@@H]12 [Example 48, 4-((1R,3aS,5aR,5bR,7aR,11aS,11bR,13aR,13bR)-3a-(3-(2-(1H-indol-1-yl)ethyl)-3-methylureido)-5a,5b,8,8,11a-pentamethyl-1-(prop-1-en-2-yl)-2,3,3a,4,5,5a,5b,6,7,7a,8,11,11a,11b,12,13,13a,13b-octadecahydro-1H-cyclopenta[a]chrysen-9-yl)benzoic acid] | < 100 |
| C=C(C)[C@@H]1CC[C@]2(NC(=O)NCCCN(C)S(C)(=O)=O)CC[C@]3(C)[C@H](CC[C@@H]4[C@@]5(C)CC=C(c6ccc(C(=O)O)cc6)C(C)(C)[C@@H]5CC[C@]43C)[C@@H]12 [Example 49, 4-((1R,3aS,5aR,5bR,7aR,11aS,11bR,13aR,13bR)-5a,5b,8,8,11a-pentamethyl-3a-(3-(3-(N-methylmethylsulfonamido)propyl)ureido)-1-(prop-1-en-2-yl)-2,3,3a,4,5,5a,5b,6,7,7a,8,11,11a,11b,12,13,13a,13b-octadecahydro-1H-cyclopenta[a]chrysen-9-yl)benzoic acid] | < 100 |

Same assay, conditions: Renilla, NL43, luciferase activity in cells infected for 4-5 days with NLRluc recombinants, serial dilutions of inhibitor; numeric values; read-out: EC50

| SMILES | EC50 [nM] |
| --- | --- |
| C=C(C)[C@@H]1CC[C@]2(NC(=O)N3CCN(C4CCCC4)C(=O)C3)CC[C@]3(C)[C@H](CC[C@@H]4[C@@]5(C)CC=C(c6ccc(C(=O)O)cc6)C(C)(C)[C@@H]5CC[C@]43C)[C@@H]12 [Example 37, 4-((1R,3aS,5aR,5bR,7aR,11aS,11bR,13aR,13bR)-3a-(4-cyclopentyl-3-oxopiperazine-1-carboxamido)-5a,5b,8,8,11a-pentamethyl-1-(prop-1-en-2-yl)-2,3,3a,4,5,5a,5b,6,7,7a,8,11,11a,11b,12,13,13a,13b-octadecahydro-1H-cyclopenta[a]chrysen-9-yl)benzoic acid] | 4 |
| C=C(C)[C@@H]1CC[C@]2(NC(=O)N(CCN)CCC(=O)O)CC[C@]3(C)[C@H](CC[C@@H]4[C@@]5(C)CC=C(c6ccc(C(=O)O)cc6)C(C)(C)[C@@H]5CC[C@]43C)[C@@H]12 [Example 43, 4-((1R,3aS,5aR,5bR,7aR,11aS,11bR,13aR,13bR)-3a-(3-(2-aminoethyl)-3-(2-carboxyethyl)ureido)-5a,5b,8,8,11a-pentamethyl-1-(prop-1-en-2-yl)-2,3,3a,4,5,5a,5b,6,7,7a,8,11,11a,11b,12,13,13a,13b-octadecahydro-1H-cyclopenta[a]chrysen-9-yl)benzoic acid] | 30 |
